Laboratory results: patent publication US8822471B2, “Compounds, pharmaceutical compositions and uses thereof” (Boehringer Ingelheim International GmbH, priority 2011, dated 2014)

How the values were obtained:
[1] = biological target: T1, mutant form of the human GPR119 receptor (Homo sapiens, UniProt Q8TDV5, S329A/T327A); assay: LANCE cAMP-384 assay in HEK293 cells stably expressing a mutant form of the human GPR119 receptor; type: cell-based; details: HEK293 cells stably expressing mutant human GPR119, LANCE cAMP-384 Kit, 20 min at 37° C.
T1 construct: T327 & S329 changed to alanines; expressed in transfected cells
T1 sequence (Q8TDV5 2-335 T327A/S329A): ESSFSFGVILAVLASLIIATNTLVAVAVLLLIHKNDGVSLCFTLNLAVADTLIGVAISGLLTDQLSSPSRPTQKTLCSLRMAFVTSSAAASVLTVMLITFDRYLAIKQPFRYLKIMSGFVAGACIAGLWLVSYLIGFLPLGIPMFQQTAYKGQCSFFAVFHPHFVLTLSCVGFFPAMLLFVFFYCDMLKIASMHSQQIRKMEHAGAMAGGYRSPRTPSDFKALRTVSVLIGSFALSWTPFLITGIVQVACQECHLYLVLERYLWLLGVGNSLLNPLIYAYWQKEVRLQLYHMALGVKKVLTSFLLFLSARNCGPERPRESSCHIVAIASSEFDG
Protocol: Quantitative detection of cAMP accumulation from cells expressing human GPR119 receptor is achieved using Perkin Elmer's LANCE cAMP-384 Kit (Cat#AD0264) according to the manufacturer's protocol. Briefly, HEK293 cells stably expressing a mutant form of the human GPR119 receptor as assay tool (Methionine 1 replaced with the amino acid sequence […], and T327 & S329 changed to alanines; SEQ ID No. 1) are grown to 50-70% confluency in cell culture media (DMEM, 10% heat inactivated Fetal Bovine Serum, 50 I.U./mL penicillin, 50 μg/mL streptomycin, 10 mM HEPES, 20 μg/mL G418 Sulfate). On the day of the assay, GPR119 stable HEK293 cells are lifted from the tissue culture plate and 1000 cells/well are incubated along with various concentrations of test compounds for 20 min at 37° C. Detection Buffer (50 mM HEPES, 10 mM calcium chloride, 0.35% Triton X-100, 1 mg/mL BSA) containing cAMP-specific antibody is then added to all wells and allowed to equilibrate in the dark for 10 minutes at room temperature. Upon equilibration, Detection Buffer containing europium-labeled cAMP tracer complex is added to all wells and allowed to react for 1 hour at room temperature. After 1 hour, bound europium-labeled cAMP tracer is measured using a Perkin Elmer Envision plate reader. The quantity of cAMP generated in each well is derived from a standard curve. EC50 is determined using nonlinear regression analysis of the cAMP values over a range of agonist concentration (12 points spanning the range from 30 μM to 100 pM).

human GPR119 = biological target: T2, human GPR119 (Homo sapiens, UniProt Q8TDV5); assay: AlphaScreen cAMP assay in MIN6 cells stably transfected with human GPR119; type: cell-based; details: Min-6/hGPR119 cells, AlphaScreen cAMP Assay Kit, 45 minutes incubation at room temperature
T2 construct: expression vector for human GPR119 cDNA (Acc. No. NP_848566); expressed in transfected cells
T2 sequence (Q8TDV5 1-335): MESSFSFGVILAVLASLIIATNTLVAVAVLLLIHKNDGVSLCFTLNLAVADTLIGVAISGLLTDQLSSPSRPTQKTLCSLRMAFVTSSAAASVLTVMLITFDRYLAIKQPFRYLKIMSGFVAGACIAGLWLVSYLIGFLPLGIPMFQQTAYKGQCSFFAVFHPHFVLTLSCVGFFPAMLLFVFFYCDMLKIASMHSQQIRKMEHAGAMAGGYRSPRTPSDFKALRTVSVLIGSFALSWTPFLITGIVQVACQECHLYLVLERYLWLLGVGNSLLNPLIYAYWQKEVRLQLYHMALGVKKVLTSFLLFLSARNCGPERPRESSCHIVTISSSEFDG
Summary of the method: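 MIN6 cells stably expressing human GPR119, seeded 24 h, then stimulated 45 min at room temperature with compound in pH 7.4 Hepes-buffered salt solution with 0.5 mM IBMX, 0.1% BSA, 1% DMSO. Intracellular cAMP measured by AlphaScreen.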

Compound | EC50 [1] | EC50 (human GPR119)
Cc1nnnn1-c1ccc(C(=O)N(C2CC2)[C@@H]2CCN(c3ccc(C(F)(F)F)cn3)C[C@@H]2F)cc1 (single isomer, unassigned) [Example 120] | 745 nM | 
O=C(c1ccc(-n2cnnn2)c(F)c1)N(C1CC1)[C@@H]1CCN(c2ccc(C(F)(F)F)cn2)C[C@@H]1F (single isomer, unassigned) [Example 121] | 134 nM | 
Cc1cnc(N2CCC(N(C(=O)c3ccc(-c4cnco4)cc3)C3CC3)CC2)nc1 [Example 89, N-Cyclopropyl-N-[1-(5-methyl-pyrimidin-2-yl)-piperidin-4-yl]-4-oxazol-5-yl-benzamide] |  | 34 nM
Cc1nccn1-c1ccc(C(=O)N(C2CC2)C2CCN(c3ncc(C(F)(F)F)cc3F)CC2)cc1 [Example 90, N-Cyclopropyl-N-(3′-fluoro-5′-trifluoromethyl-3,4,5,6-tetrahydro-2H-[1,2′]bipyridinyl-4-yl)-4-(2-methyl-imidazol-1-yl)-benzamide] | 149 nM | 
O=C(c1ccc(-n2cncn2)cc1)N(C1CC1)C1CCN(c2ncc(C(F)(F)F)cc2F)CC1 [Example 91, N-Cyclopropyl-N-(3′-fluoro-5′-trifluoromethyl-3,4,5,6-tetrahydro-2H-[1,2′]bipyridinyl-4-yl)-4-[1,2,4]triazol-1-yl-benzamide] | 48 nM | 
Cc1ncnn1-c1ccc(C(=O)N(C2CC2)C2CCN(c3ncc(C(F)(F)F)cc3F)CC2)cc1 [Example 92, N-Cyclopropyl-N-(3′-fluoro-5′-trifluoromethyl-3,4,5,6-tetrahydro-2H-[1,2′]bipyridinyl-4-yl)-4-(5-methyl-[1,2,4]triazol-1-yl)-benzamide] | 265 nM | 
Cc1nccn1-c1ccc(C(=O)N(C2CC2)C2CCN(c3ncc(C(F)(F)F)cc3F)CC2)cc1F [Example 93, N-Cyclopropyl-3-fluoro-N-(3′-fluoro-5′-trifluoromethyl-3,4,5,6-tetrahydro-2H-[1,2′]bipyridinyl-4-yl)-4-(2-methyl-imidazol-1-yl)-benzamide] | 168 nM | 
O=C(c1ccc(-n2cncn2)c(F)c1)N(C1CC1)C1CCN(c2ncc(C(F)(F)F)cc2F)CC1 [Example 94, N-Cyclopropyl-3-fluoro-N-(3′-fluoro-5′-trifluoromethyl-3,4,5,6-tetrahydro-2H-[1,2′]bipyridinyl-4-yl)-4-[1,2,4]triazol-1-yl-benzamide] | 10 nM | 
Cc1ncnn1-c1ccc(C(=O)N(C2CC2)C2CCN(c3ncc(C(F)(F)F)cc3F)CC2)cc1F [Example 95, N-Cyclopropyl-3-fluoro-N-(3′-fluoro-5′-trifluoromethyl-3,4,5,6-tetrahydro-2H-[1,2′]bipyridinyl-4-yl)-4-(5-methyl-[1,2,4]triazol-1-yl)-benzamide] | 595 nM | 
Cc1nccn1-c1ccc(C(=O)N(C2CC2)C2CCN(c3nc(C(C)C)no3)CC2)cc1 [Example 96, N-Cyclopropyl-N-[1-(3-isopropyl-[1,2,4]oxadiazol-5-yl)-piperidin-4-yl]-4-(2-methyl-imidazol-1-yl)-benzamide] | 1630 nM | 
CC(C)c1noc(N2CCC(N(C(=O)c3ccc(-n4cncn4)cc3)C3CC3)CC2)n1 [Example 97, N-Cyclopropyl-N-[1-(3-isopropyl-[1,2,4]oxadiazol-5-yl)-piperidin-4-yl]-4-[1,2,4]triazol-1-yl-benzamide] | 170 nM | 
Cc1nccn1-c1ccc(C(=O)N(C2CC2)C2CCN(c3nc(C(C)C)no3)CC2)cc1F [Example 99, N-Cyclopropyl-3-fluoro-N-[1-(3-isopropyl-[1,2,4]oxadiazol-5-yl)-piperidin-4-yl]-4-(2-methyl-imidazol-1-yl)-benzamide] | 1740 nM | 
CC(C)c1noc(N2CCC(N(C(=O)c3ccc(-n4cncn4)c(F)c3)C3CC3)CC2)n1 [Example 100, N-Cyclopropyl-3-fluoro-N-[1-(3-isopropyl-[1,2,4]oxadiazol-5-yl)-piperidin-4-yl]-4-[1,2,4]triazol-1-yl-benzamide] | 45 nM | 
Cc1ncnn1-c1ccc(C(=O)N(C2CC2)C2CCN(c3nc(C(C)C)no3)CC2)cc1F [Example 101, N-Cyclopropyl-3-fluoro-N-[1-(3-isopropyl-[1,2,4]oxadiazol-5-yl)-piperidin-4-yl]-4-(5-methyl-[1,2,4]triazol-1-yl)-benzamide] | 1130 nM | 
CCc1cnc(N2CCC(N(C(=O)c3ccc(-n4ccnc4C)cc3)C3CC3)CC2)nc1 [Example 102, N-Cyclopropyl-N-[1-(5-ethyl-pyrimidin-2-yl)-piperidin-4-yl]-4-(2-methyl-imidazol-1-yl)-benzamide] | 1090 nM | 
CCc1cnc(N2CCC(N(C(=O)c3ccc(-n4ncnc4C)cc3)C3CC3)CC2)nc1 [Example 103, N-Cyclopropyl-N-[1-(5-ethyl-pyrimidin-2-yl)-piperidin-4-yl]-4-(5-methyl-[1,2,4]triazol-1-yl)-benzamide] | 1590 nM | 
CCc1cnc(N2CCC(N(C(=O)c3ccc(-n4ccnc4C)c(F)c3)C3CC3)CC2)nc1 [Example 104, N-Cyclopropyl-N-[1-(5-ethyl-pyrimidin-2-yl)-piperidin-4-yl]-3-fluoro-4-(2-methyl-imidazol-1-yl)-benzamide] | 1950 nM | 
CCc1cnc(N2CCC(N(C(=O)c3ccc(-n4cncn4)c(F)c3)C3CC3)CC2)nc1 [Example 105, N-Cyclopropyl-N-[1-(5-ethyl-pyrimidin-2-yl)-piperidin-4-yl]-3-fluoro-4-[1,2,4]triazol-1-yl-benzamide] | 53 nM | 
CCc1cnc(N2CCC(N(C(=O)c3ccc(-n4ncnc4C)c(F)c3)C3CC3)CC2)nc1 [Example 106, N-Cyclopropyl-N-[1-(5-ethyl-pyrimidin-2-yl)-piperidin-4-yl]-3-fluoro-4-(5-methyl-[1,2,4]triazol-1-yl)-benzamide] | 885 nM | 
Cc1nccn1-c1ccc(C(=O)N(C2CC2)C2CCN(c3ncc(Cl)cn3)CC2)cc1 [Example 107, N-[1-(5-Chloro-pyrimidin-2-yl)-piperidin-4-yl]-N-cyclopropyl-4-(2-methyl-imidazol-1-yl)-benzamide] | 549 nM | 
O=C(c1ccc(-n2cncn2)cc1)N(C1CC1)C1CCN(c2ncc(Cl)cn2)CC1 [Example 108, N-[1-(5-Chloro-pyrimidin-2-yl)-piperidin-4-yl]-N-cyclopropyl-4-[1,2,4]triazol-1-yl-benzamide] | 552 nM | 
Cc1ncnn1-c1ccc(C(=O)N(C2CC2)C2CCN(c3ncc(Cl)cn3)CC2)cc1 [Example 109, N-[1-(5-Chloro-pyrimidin-2-yl)-piperidin-4-yl]-N-cyclopropyl-4-(5-methyl-[1,2,4]triazol-1-yl)-benzamide] | 1740 nM | 
O=C(c1ccc(-n2cnnn2)cc1)N(C1CC1)C1CCN(c2ncc(Cl)cn2)CC1 [Example 110, N-[1-(5-Chloro-pyrimidin-2-yl)-piperidin-4-yl]-N-cyclopropyl-4-tetrazol-1-yl-benzamide] | 360 nM | 
Cc1nnnn1-c1ccc(C(=O)N(C2CC2)C2CCN(c3ncc(Cl)cn3)CC2)cc1 [Example 111, N-[1-(5-Chloro-pyrimidin-2-yl)-piperidin-4-yl]-N-cyclopropyl-4-(5-methyl-tetrazol-1-yl)-benzamide] | 407 nM | 
Cc1nccn1-c1ccc(C(=O)N(C2CC2)C2CCN(c3ncc(Cl)cn3)CC2)cc1F [Example 112, N-[1-(5-Chloro-pyrimidin-2-yl)-piperidin-4-yl]-N-cyclopropyl-3-fluoro-4-(2-methyl-imidazol-1-yl)-benzamide] | 1500 nM | 
O=C(c1ccc(-n2cncn2)c(F)c1)N(C1CC1)C1CCN(c2ncc(Cl)cn2)CC1 [Example 113, N-[1-(5-Chloro-pyrimidin-2-yl)-piperidin-4-yl]-N-cyclopropyl-3-fluoro-4-[1,2,4]triazol-1-yl-benzamide] | 47 nM | 
